What follows are compounds tested against T1, HPK1 (Homo sapiens, UniProt Q92918) (assay: HPK1 biochemical enzyme assay (microfluidic mobility shift assay)). Details: 1000 uM (1 mM) ATP; Caliper mobility shift; 1.5 nM HPK1; 30 min preincubation; read-out: HPK1 1000UMATP caliper IC50.
T1 construct: purchased Invitrogen
Outline: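 IC50 values, grouped into activity categories, come from 10-point titrations (top final 3 μM) preincubated 30 min with 1.5 nM enzyme and substrate at pH 7.4. ATP (1 mM), substrate (1 μM) and MgCl2 (5 mM) then added; after 60 min at RT, product separated by microfluidic mobility shift.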

T1 sequence (Q92918 whole entry): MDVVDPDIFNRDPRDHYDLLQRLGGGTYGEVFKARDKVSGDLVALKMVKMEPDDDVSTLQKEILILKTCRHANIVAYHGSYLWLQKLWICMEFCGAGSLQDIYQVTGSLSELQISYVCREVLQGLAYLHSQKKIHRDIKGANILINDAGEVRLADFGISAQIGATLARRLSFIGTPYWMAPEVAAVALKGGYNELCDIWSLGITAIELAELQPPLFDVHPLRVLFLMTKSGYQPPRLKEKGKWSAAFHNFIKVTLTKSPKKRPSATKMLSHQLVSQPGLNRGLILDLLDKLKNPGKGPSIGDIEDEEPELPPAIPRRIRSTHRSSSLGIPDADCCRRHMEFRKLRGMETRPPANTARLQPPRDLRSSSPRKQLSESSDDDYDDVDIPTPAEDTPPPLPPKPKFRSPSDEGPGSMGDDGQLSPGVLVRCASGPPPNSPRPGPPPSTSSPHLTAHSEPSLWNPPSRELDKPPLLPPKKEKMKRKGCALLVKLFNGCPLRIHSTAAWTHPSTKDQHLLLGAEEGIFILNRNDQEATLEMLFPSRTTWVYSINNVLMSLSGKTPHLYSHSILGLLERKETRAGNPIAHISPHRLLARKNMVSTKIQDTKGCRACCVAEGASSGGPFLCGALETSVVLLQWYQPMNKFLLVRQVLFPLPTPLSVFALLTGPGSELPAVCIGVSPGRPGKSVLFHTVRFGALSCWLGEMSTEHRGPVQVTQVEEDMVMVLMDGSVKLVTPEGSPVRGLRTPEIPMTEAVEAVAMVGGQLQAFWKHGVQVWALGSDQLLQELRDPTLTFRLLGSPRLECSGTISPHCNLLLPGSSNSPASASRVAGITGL

| Structure (SMILES) | IC50 |
| --- | --- |
| COCCOC1CN(c2ccc(Nc3cc(-c4cc(OC)c(C(=O)N5CCCCC5)cc4F)nc4cc[nH]c(=O)c34)nc2)C1 [I-188, 2-[2-fluoro-5-methoxy-4-(piperidine-1-carbonyl)phenyl]-4-[[5-[3-(2-methoxy-ethoxy)azetidin-1-yl]-2-pyridyl]amino]-6H-1,6-naphthyridin-5-one] | ≤ 100 nM |
| COc1cc(-c2cc(Nc3ccc(N4[C@H](C)COC[C@H]4C)cn3)c3c(=O)[nH]ccc3n2)c(F)cc1C(=O)N1CCCCC1 [I-190, 4-[[5-[(3R, 5R)-3,5-dimethyl-morpholin-4-yl]-2-pyridyl]amino]-2-[2-fluoro-5-methoxy-4-(piperidine-1-carbonyl)phenyl]-6H-1,6-naphthyridin-5-one] | 100 to 1000 nM |
| COc1cc(-c2cc(Nc3ccc(N4CCN(C)CC4)cn3)c3c(=O)[nH]ccc3n2)c(F)cc1C(=O)N1CCCCC1 [I-193, 2-[2-fluoro-5-methoxy-4-(piperidine-1-carbonyl)phenyl]-4-[[5-(4-methyl-piperazin-1-yl)-2-pyridyl]amino]-6H-napthyridin-5-one] | 100 to 1000 nM |
| O=c1[nH]ccc2nc(-c3cc4c(cc3F)CCC4N3CC4(CCOC4)C3)cc(Nc3ccc(N4CCC(O)CC4)cn3)c12 (centres unmarked) [I-260, 2-[6-fluoro-3-(6-oxa-2-azaspiro [3.4]octan-2-yl)indan-5-yl]-4-[[5-(4-hydroxy-1-piperidyl)-2-pyridyl]amino]-6H-1,6-naphthyridin-5-one] | 100 to 1000 nM |
| CCNC(=O)c1ccc(Nc2nc(C(C)C)nc3cc[nH]c(=O)c23)cc1 [I-10, N-ethyl-4-[(2-isopropyl-5-oxo-6H-pyrido[4,3-d]pyrimidin-4-yl)amino]benzamide] | 100 to 1000 nM |
| O=c1[nH]ccc2nc(C3CC4CCC3C4)cc(Nc3ccc(N4CCC(O)CC4)cn3)c12 (centres unmarked) [I-40, 4-[[5-(4-hydroxy-1-piperidyl)-2-pyridyl]amino]-2-norbornan-2-yl-6H-1,6-naphthyridin-5-one] | 100 to 1000 nM |
| O=c1[nH]ccc2nc(C3CCC3)cc(Nc3ccc(N4CCC(O)CC4)cn3)c12 [I-26, 2-cyclobutyl-4-[[5-(4-hydroxy-1-piperidyl)-2-pyridyl]amino]-6H-1,6-naphthyridin-5-one] | > 1000 nM |
| COc1cc(-c2cc(Nc3cc(C4CCOC4)[nH]n3)c3c(=O)[nH]ccc3n2)c(F)cc1C(=O)N1CCCCC1 (centres unmarked) [I-225, 2-[2-fluoro-5-methoxy-4-(piperidine-1-carbonyl)phenyl]-4-[(5-THF-3-yl-1H-pyrazol-3-yl)amino]-6H-1,6-naphthyridin-5-one] | > 1000 nM |
| COc1cc(OC)cc(-c2cc(Nc3ccc(N4CCC(O)CC4)cn3)c3c(=O)[nH]ccc3n2)c1 [I-100, 2-(3,5-dimethoxyphenyl)-4-[[5-(4-hydroxy-1-piperidyl)-2-pyridyl]amino]-6H-1,6-naphthyridin-5-one] | ≤ 100 nM |
| CCNC(=O)C(C)(C)c1ccc(Nc2cc(-c3c(F)cccc3F)nc3cc[nH]c(=O)c23)nc1 [I-46, 2-[6-[[2-(2,6-difluoro-phenyl)-5-oxo-6H-1,6-naphthyridin-4-yl]amino]-3-pyridyl]-N-ethyl-2-methyl-propanamide] | 100 to 1000 nM |
| O=c1[nH]ccc2nc(N3CCC4(CCCNC4)CC3)cc(Nc3ccc(N4CCC(O)CC4)cn3)c12 [I-239, 2-(2,9-diazaspiro [5.5]undecan-9-yl)-4-[[5-(4-hydroxy-1-piperidyl)-2-pyridyl]amino]-6H-1,6-naphthyridin-5-one] | 100 to 1000 nM |
| O=c1[nH]ccc2nc(N3CCCC(O)C3)cc(Nc3ccc(N4CCC(O)CC4)cn3)c12 (centres unmarked) [I-50, 2-(3-hydroxy-1-piperidyl)-4-[[5-(4-hydroxy-1-piperidyl)-2-pyridyl]amino]-6H-1,6-naphthyridin-5-one] | 100 to 1000 nM |
| CCc1c[nH]c(=O)c2c(Nc3ccc(N4CCC(O)CC4)cn3)cc(-c3c(F)cccc3F)nc12 [I-49, 2-(2,6-difluorophenyl)-8-ethyl-4-((5-(4-hydroxypiperidin-1-yl)pyridin-2-yl)amino)-1,6-naphthyridin-5(6H)-one] | 100 to 1000 nM |

Results, then the compound that gave them:

| IC50 | Structure (SMILES) |
| --- | --- |
| > 1000 nM | O=C(c1ccc(-c2cc(Nc3ccc(N4CCC(O)CC4)cn3)c3c(=O)[nH]ccc3n2)c(F)c1)N1CCCCC1CO (centres unmarked) [I-141, 2-[2-fluoro-4-[2-(hydroxy-methyl)piperidine-1-carbonyl]phenyl]-4-[[5-(4-hydroxy-1-piperidyl)-2-pyridyl]amino]-6H-1,6-naphthyridin-5-one] |
| ≤ 100 nM | CCC1(C(=O)Nc2ccc(-c3cc(Nc4ccc(N5CCC(O)CC5)cn4)c4c(=O)[nH]ccc4n3)c(F)c2)CC1 [I-223, 1-ethyl-N-[3-fluoro-4-[4-[[5-(4-hydroxy-1-piperidyl)-2-pyridyl]amino]-5-oxo-6H-1,6-naphthyridin-2-yl]phenyl] cyclopropane-carboxamide] |
| ≤ 100 nM | O=C(c1ccc(F)c(-c2cc(Nc3ccc(N4CCC(O)CC4)cn3)c3c(=O)[nH]ccc3n2)c1)N1CCCC1 [I-93, 2-[2-fluoro-5-(pyrrolidine-1-carbonyl)phenyl]-4-[[5-(4-hydroxy-1-piperidyl)-2-pyridyl]amino]-6H-1,6-naphthyridin-5-one] |
| > 1000 nM | CC(C)(C#N)c1ccc(F)c(-c2cc(Nc3ccc(N4CCC(O)CC4)cn3)c3c(=O)[nH]ccc3n2)c1 [I-104, 2-[4-fluoro-3-[4-[[5-(4-hydroxy-1-piperidyl)-2-pyridyl]amino]-5-oxo-6H-1,6-naphthyridin-2-yl]phenyl]-2-methyl-propane-nitrile] |
| > 1000 nM | O=c1[nH]ccc2nc(-c3ccnc4[nH]ccc34)cc(Nc3ccc(N4CCC(O)CC4)cn3)c12 [I-282, 4-[[5-(4-hydroxy-1-piperidyl)-2-pyridyl]amino]-2-(1H-pyrrolo [2,3-b]pyridin-4-yl)-6H-1,6-naphthyridin-5-one] |
| ≤ 100 nM | CN(C(=O)C1CC1)c1ccc(-c2cc(Nc3ccc(N4CCC(O)CC4)cn3)c3c(=O)[nH]ccc3n2)c(F)c1 [I-108, N-[3-fluoro-4-[4-[[5-(4-hydroxy-1-piperidyl)-2-pyridyl]amino]-5-oxo-6H-1,6-naphthyridin-2-yl]phenyl]-N-methyl-cyclopropane-carboxamide] |
| 100 to 1000 nM | O=c1[nH]ccc2nc(-c3cc(C4CCCN4)ccc3F)cc(Nc3ccc(N4CCC(O)CC4)cn3)c12 (centres unmarked) [I-243, 2-(2-fluoro-5-pyrrolidin-2-yl-phenyl)-4-[[5-(4-hydroxy-1-piperidyl)-2-pyridyl]amino]-6H-1,6-naphthyridin-5-one] |
| > 1000 nM | O=C(c1ccc(-c2cc(Nc3ccc(N4CCOCC4)cn3)c3c(=O)[nH]ccc3n2)c(F)c1)N1CCCCC1 [I-155, 2-[2-fluoro-4-(piperidine-1-carbonyl)phenyl]-4-[(5-morpholino-2-pyridyl)amino]-6H-1,6-naphthyridin-5-one] |
| ≤ 100 nM | O=C(Nc1ccc(-c2cc(Nc3ccc(N4CCC(O)CC4)cn3)c3c(=O)[nH]ccc3n2)c(F)c1)[C@H]1C[C@H]2CC[C@@H]1C2 (single isomer, unassigned) [I-261] |
| 100 to 1000 nM | O=c1[nH]ccc2nc(N3CCCCC3)cc(Nc3ccc(N4CCC(O)CC4)cn3)c12 [I-83, 4-[[5-(4-hydroxy-1-piperidyl)-2-pyridyl]amino]-2-(1-piperidyl)-6H-1,6-naphthyridin-5-one] |
| > 1000 nM | O=C(Nc1ccc(-c2cc(Nc3ccc(N4CCC(F)(F)CC4)cn3)c3c(=O)[nH]ccc3n2)c(F)c1)C1CCCCC1 [I-172, N-[4-[4-[[5-(4,4-difluoro-1-piperidyl)-2-pyridyl]amino]-5-oxo-6H-1,6-naphthyridin-2-yl]-3-fluoro-phenyl] cyclohexane-carboxamide] |
| ≤ 100 nM | O=C(NC1CCCCC1)c1ccc(-c2cc(Nc3ccc(N4CCC(O)CC4)cn3)c3c(=O)[nH]ccc3n2)c(F)c1 [I-139, N-cyclohexyl-3-fluoro-4-[4-[[5-(4-hydroxy-1-piperidyl)-2-pyridyl]amino]-5-oxo-6H-1,6-naphthyridin-2-yl] benzamide] |
| 100 to 1000 nM | O=c1[nH]ccc2nc(-c3ccc(OCc4ccncc4)cc3F)cc(Nc3ccc(N4CCC(O)CC4)cn3)c12 [I-61, 2-[2-fluoro-4-(4-pyridyl-methoxy)phenyl]-4-[[5-(4-hydroxy-1-piperidyl)-2-pyridyl]amino]-6H-1,6-naphthyridin-5-one] |
| ≤ 100 nM | O=c1[nH]ccc2nc(-c3cc(C4CC4)ccc3F)cc(Nc3ccc(N4CCC(O)CC4)cn3)c12 [I-43, 2-(5-cyclopropyl-2-fluoro-phenyl)-4-[[5-(4-hydroxy-1-piperidyl)-2-pyridyl]amino]-6H-1,6-naphthyridin-5-one] |
| ≤ 100 nM | COc1cc(-c2cc(Nc3ccc(N4CCC(O)CC4)cn3)c3c(=O)[nH]ccc3n2)c(F)cc1C(=O)N1CCCC1 [I-206, 2-[2-fluoro-5-methoxy-4-(pyrrolidine-1-carbonyl)phenyl]-4-[[5-(4-hydroxy-1-piperidyl)-2-pyridyl]amino]-6H-naphthyridin-5-one] |
| 100 to 1000 nM | CN(C)C(=O)c1ccc(F)c(-c2cc(Nc3ccc(N4CCC(O)CC4)cn3)c3c(=O)[nH]ccc3n2)c1 [I-79, 4-fluoro-3-[4-[[5-(4-hydroxy-1-piperidyl)-2-pyridyl]amino]-5-oxo-6H-1,6-naphthyridin-2-yl]-N,N-dimethyl-benzamide] |
| ≤ 100 nM | Cc1c[nH]c(=O)c2c(Nc3ccc(N4CCC(O)CC4)cn3)cc(-c3ccc(NC(=O)C4CCCCC4)cc3F)nc12 [I-158, N-[3-fluoro-4-[4-[[5-(4-hydroxy-1-piperidyl)-2-pyridyl]amino]-8-methyl-5-oxo-6H-1,6-naphthyridin-2-yl]phenyl] cyclohexane carboxamide] |
| ≤ 100 nM | CN(C)C1CCc2cc(F)c(-c3cc(Nc4ccc(N5CCC(O)CC5)cn4)c4c(=O)[nH]ccc4n3)cc21 (centres unmarked) [I-244, 2-[3-(dimethyl-amino)-6-fluoro-indan-5-yl]-4-[[5-(4-hydroxy-1-piperidyl)-2-pyridyl]amino]-6H-1,6-naphthyridin-5-one] |
| 100 to 1000 nM | CNC(=O)c1ccc(-c2cc(Nc3ccc(N4CCC(O)CC4)cn3)c3c(=O)[nH]ccc3n2)c(F)c1 [I-70, 3-fluoro-4-[4-[[5-(4-hydroxy-1-piperidyl)-2-pyridyl]amino]-5-oxo-6H-1,6-naphthyridin-2-yl]-N-methyl-benzamide] |
